According to PubChem BioAssay AID1259407 (Chemical Carcinogenesis Research Information System (CCRIS), 2018):
Activity calls are given as the source filed them. The rule behind the calls is not given here.

Tested on: CCRIS mutagenicity, Ames/micronucleus/aberration tests
Assay: CCRIS mutagenicity studies
From the text: The CCRIS database contains chemical records with carcinogenicity, mutagenicity, tumor promotion, and tumor inhibition test results. It was developed by the National Cancer Institute (NCI). Data are derived from studies cited in primary journals, current awareness tools, NCI reports, and other sources. Test results have been reviewed by experts in carcinogenesis and mutagenesis.
CCRIS provides historical information from the years 1985 - 2011. It is no longer updated.
This is an archive assay for CCRIS mutagenicity studies.

[1] = Test System: AMES SALMONELLA TYPHIMURIUM, Strain/Indicator: TA100, Metabolic Activation: NONE, Method: PREINCUBATION
[2] = Test System: AMES SALMONELLA TYPHIMURIUM, Strain/Indicator: TA100, Metabolic Activation: RAT, LIVER, S-9, AROCLOR 1254, Method: PREINCUBATION
[3] = Test System: AMES SALMONELLA TYPHIMURIUM, Strain/Indicator: TA98, Metabolic Activation: NONE, Method: STANDARD PLATE
[4] = Test System: AMES SALMONELLA TYPHIMURIUM, Strain/Indicator: TA100, Metabolic Activation: NONE, Method: STANDARD PLATE
[5] = Test System: AMES SALMONELLA TYPHIMURIUM, Strain/Indicator: TA98, Metabolic Activation: NONE, Method: PREINCUBATION
[6] = Test System: AMES SALMONELLA TYPHIMURIUM, Strain/Indicator: TA98, Metabolic Activation: RAT, LIVER, S-9, AROCLOR 1254, Method: STANDARD PLATE
[7] = Test System: AMES SALMONELLA TYPHIMURIUM, Strain/Indicator: TA100, Metabolic Activation: RAT, LIVER, S-9, AROCLOR 1254, Method: STANDARD PLATE

Which mutagenic call (End Point: IN VITRO CHROMOSOMAL ABERRATIONS, Test System: CHL CELLS, Metabolic Activation: NONE) does the source give for `COC(=O)C(Cl)Cl` here?
Its mutagenic call is “active; positive (structural changes); precipitation of test chemical observed above 1.6”.

What about the mutagenic call (End Point: IN VITRO CHROMOSOMAL ABERRATIONS, Test System: CHL CELLS, Metabolic Activation: RAT, LIVER, S-9, SODIUM PHENOBARBITAL AND 5,6-BENZOFLAVONE) of the same compound?
Its mutagenic call is “active; positive (structural changes); precipitation of test chemical observed above 2.0”.

What about the mutagenic call (Test System: AMES SALMONELLA TYPHIMURIUM, Strain/Indicator: TA102, Metabolic Activation: RAT, LIVER, S-9, PHENOBARBITAL AND 5,6-BENZOFLAVONE, Method: STANDARD PLATE) of the same compound?
The mutagenic call was “active; positive”.

What about the mutagenic call (Test System: AMES SALMONELLA TYPHIMURIUM, Strain/Indicator: TA2638, Metabolic Activation: RAT, LIVER, S-9, PHENOBARBITAL AND 5,6-BENZOFLAVONE, Method: STANDARD PLATE) of the same compound?
The mutagenic call was “active; positive”.

What about the mutagenic call (Test System: E. COLI, Strain/Indicator: WP2 (PKM101), Metabolic Activation: RAT, LIVER, S-9, PHENOBARBITAL AND 5,6-BENZOFLAVONE, Method: STANDARD PLATE) of the same compound?
The mutagenic call was “active; positive”.

What about the mutagenic call (Test System: E. COLI, Strain/Indicator: WP2 UVRA (PKM101), Metabolic Activation: RAT, LIVER, S-9, PHENOBARBITAL AND 5,6-BENZOFLAVONE, Method: STANDARD PLATE) of the same compound?
Its mutagenic call is “active; positive”.

`CCCC/C=C/C=C/C=C/C=C/C=C/OC[C@@H](O)CO` was tested. Which mutagenic call [1] did it give?
Its mutagenic call is “active; positive”.

And the mutagenic call [2]?
The mutagenic call was “active; positive”.

For `CC1(c2ccccc2)C(=O)c2ccccc2N1[O]` (stereo not given), which mutagenic call [3] is on record?
The mutagenic call was “inactive; negative”.

And the mutagenic call [4]?
Its mutagenic call is “inactive; negative”.

What about the mutagenic call (Test System: AMES SALMONELLA TYPHIMURIUM, Strain/Indicator: TA102, Metabolic Activation: NONE, Method: STANDARD PLATE) of the same compound?
The mutagenic call was “inactive; negative”.

Which results are given for `O=[N+]([O-])c1cc2c3c(ccc2c2ccccc12)[C@H](O)[C@@H](O)C=C3`?
mutagenic call [5]: active; positive; mutagenic call [3]: inactive; negative; mutagenic call (Test System: AMES SALMONELLA TYPHIMURIUM, Strain/Indicator: TA98, Metabolic Activation: RAT, LIVER, S-9, AROCLOR 1254, Method: PREINCUBATION): inactive; negative; mutagenic call [6]: active; positive; mutagenic call [1]: active; positive; mutagenic call [4]: active; positive; mutagenic call [2]: active; positive; mutagenic call [7]: active; positive; mutagenic call (Test System: CHINESE HAMSTER OVARY, Strain/Indicator: CHO-K1-BH4 (HGPRT)/6-THIOGUANINE, Metabolic Activation: NONE, Method: STANDARD PLATE): inactive; negative; mutagenic call (Test System: CHINESE HAMSTER OVARY, Strain/Indicator: CHO-K1-BH4 (HGPRT)/6-THIOGUANINE, Metabolic Activation: RAT, LIVER, S-9, AROCLOR 1254, Method: STANDARD PLATE): active; positive; mutagenic call (Test System: CHINESE HAMSTER OVARY, Strain/Indicator: CHO-UV5 (HGPRT)/6-THIOGUANINE, Metabolic Activation: NONE, Method: STANDARD PLATE): inactive; negative; mutagenic call (Test System: CHINESE HAMSTER OVARY, Strain/Indicator: CHO-UV5 (HGPRT)/6-THIOGUANINE, Metabolic Activation: RAT, LIVER, S-9, AROCLOR 1254, Method: STANDARD PLATE): active; positive

`O=[N+]([O-])c1ccc2c(c1)Oc1ccc([N+](=O)[O-])cc1O2` was tested. Which mutagenic call (Test System: AMES SALMONELLA TYPHIMURIUM, Strain/Indicator: TA98(1,8-DNP6), Metabolic Activation: NONE, Method: PREINCUBATION) did it give?
The mutagenic call was “active; positive”.

What about the mutagenic call (Test System: AMES SALMONELLA TYPHIMURIUM, Strain/Indicator: TA98(1,8-DNP6), Metabolic Activation: NONE, Method: SUSPENSION) of the same compound?
Its mutagenic call is “active; positive”.

What about the mutagenic call (Test System: AMES SALMONELLA TYPHIMURIUM, Strain/Indicator: TA98(1,8-DNP6), Metabolic Activation: RAT, LIVER, S-9, PCB (5%), Method: PREINCUBATION) of the same compound?
The mutagenic call was “active; positive”.

And the mutagenic call (Test System: AMES SALMONELLA TYPHIMURIUM, Strain/Indicator: TA98(NR), Metabolic Activation: NONE, Method: PREINCUBATION)?
Its mutagenic call is “inactive; negative”.

And the mutagenic call (Test System: AMES SALMONELLA TYPHIMURIUM, Strain/Indicator: TA98(NR), Metabolic Activation: NONE, Method: SUSPENSION)?
The mutagenic call was “active; positive”.

And the mutagenic call (Test System: AMES SALMONELLA TYPHIMURIUM, Strain/Indicator: TA98(NR), Metabolic Activation: RAT, LIVER, S-9 (15%), Method: PREINCUBATION)?
The mutagenic call was “active; positive”.

And the mutagenic call (Test System: AMES SALMONELLA TYPHIMURIUM, Strain/Indicator: TA98(NR), Metabolic Activation: RAT, LIVER, S-9, 3-METHYLCHOLANTHRENE (15%), Method: PREINCUBATION)?
Its mutagenic call is “active; positive”.

What about the mutagenic call (Test System: AMES SALMONELLA TYPHIMURIUM, Strain/Indicator: TA98(NR), Metabolic Activation: RAT, LIVER, S-9, BETA-NAPHTHOFLAVONE (15%), Method: PREINCUBATION) of the same compound?
Its mutagenic call is “active; positive”.

And the mutagenic call (Test System: AMES SALMONELLA TYPHIMURIUM, Strain/Indicator: TA98(NR), Metabolic Activation: RAT, LIVER, S-9, PCB (5 OR 15%), Method: PREINCUBATION)?
The mutagenic call was “active; positive”.

What about the mutagenic call (Test System: AMES SALMONELLA TYPHIMURIUM, Strain/Indicator: TA98(NR), Metabolic Activation: RAT, LIVER, S-9, PHENOBARBITAL (15%), Method: PREINCUBATION) of the same compound?
The mutagenic call was “active; positive”.

And the mutagenic call [5]?
Its mutagenic call is “active; positive”.

And the mutagenic call (Test System: AMES SALMONELLA TYPHIMURIUM, Strain/Indicator: TA98, Metabolic Activation: NONE, Method: SUSPENSION)?
The mutagenic call was “active; positive”.

And the mutagenic call (Test System: AMES SALMONELLA TYPHIMURIUM, Strain/Indicator: TA98, Metabolic Activation: RAT, LIVER, S-9, PCB (5%), Method: PREINCUBATION)?
Its mutagenic call is “active; positive”.

What about the mutagenic call (Test System: AMES SALMONELLA TYPHIMURIUM, Strain/Indicator: TA98, Metabolic Activation: RAT, LIVER, S-9, PCB, Method: SUSPENSION) of the same compound?
Its mutagenic call is “active; positive”.

And the mutagenic call [1]?
Its mutagenic call is “inactive; negative”.

What about the mutagenic call (Test System: AMES SALMONELLA TYPHIMURIUM, Strain/Indicator: TA100, Metabolic Activation: NONE, Method: SUSPENSION) of the same compound?
The mutagenic call was “inactive; negative”.

What about the mutagenic call (Test System: AMES SALMONELLA TYPHIMURIUM, Strain/Indicator: TA100, Metabolic Activation: RAT, LIVER, S-9, PCB, Method: PREINCUBATION) of the same compound?
The mutagenic call was “inactive; negative”.

And the mutagenic call (Test System: AMES SALMONELLA TYPHIMURIUM, Strain/Indicator: TA100, Metabolic Activation: RAT, LIVER, S-9, PCB, Method: SUSPENSION)?
The mutagenic call was “inactive; negative”.

Which mutagenic call (Test System: AMES SALMONELLA TYPHIMURIUM, Strain/Indicator: TM677, Metabolic Activation: RAT, LIVER, S-9, AROCLOR 1254, Method: PREINCUBATION) does the source give for `C=C1C[C@@]23CC[C@H]4[C@@](C)(CCC[C@@]4(C)C(=O)O)[C@@H]2CC[C@]1(O[C@@H]1O[C@H](CO)[C@@H](O)[C@H](O)[C@H]1O[C@@H]1O[C@H](CO)[C@@H](O)[C@H](O)[C@H]1O)C3` here?
The mutagenic call was “inactive; negative”.

How did the mutagenic call (Test System: CHINESE HAMSTER V79 CELLS, Strain/Indicator: V79 CELLS (HPRT)/6-THIOGUANINE, Metabolic Activation: NONE, Method: SUSPENSION/PLATE) turn out when `COc1cc(C[C@H]2COC(=O)[C@@H]2Cc2ccc(O)c(OC)c2)ccc1O` was run?
The mutagenic call was “inactive; negative”.

And the mutagenic call (Test System: CHINESE HAMSTER V-79, Strain/Indicator: V-79(HPRT)/THIOGUANINE, Metabolic Activation: NONE)?
The mutagenic call was “inactive; negative”.

For `c1ccc2cc3c(cc2c1)c1cccc2ccc4cccc3c4c21`, which mutagenic call (Test System: HUMAN H1A1V2 CELLS, Strain/Indicator: TK LOCUS, Metabolic Activation: NONE, Method: SUSPENSION/PLATE) is on record?
The mutagenic call was “active; positive”.

With `Cc1cc(N)c(C)c([N+](=O)[O-])c1N` as the compound, how does the mutagenic call [3] read?
The mutagenic call was “inactive; negative”.

What about the mutagenic call [6] of the same compound?
The mutagenic call was “active; positive”.

And the mutagenic call [4]?
The mutagenic call was “inactive; negative”.

And the mutagenic call [7]?
The mutagenic call was “inactive; negative”.

What about the mutagenic call (Test System: AMES SALMONELLA TYPHIMURIUM, Strain/Indicator: TA1535, Metabolic Activation: NONE, Method: STANDARD PLATE) of the same compound?
Its mutagenic call is “inactive; negative”.

What about the mutagenic call (Test System: AMES SALMONELLA TYPHIMURIUM, Strain/Indicator: TA1535, Metabolic Activation: RAT, LIVER, S-9, AROCLOR 1254, Method: STANDARD PLATE) of the same compound?
The mutagenic call was “inactive; negative”.

And the mutagenic call (Test System: AMES SALMONELLA TYPHIMURIUM, Strain/Indicator: TA1537, Metabolic Activation: NONE, Method: STANDARD PLATE)?
The mutagenic call was “inactive; negative”.

And the mutagenic call (Test System: AMES SALMONELLA TYPHIMURIUM, Strain/Indicator: TA1537, Metabolic Activation: RAT, LIVER, S-9, AROCLOR 1254, Method: STANDARD PLATE)?
The mutagenic call was “inactive; negative”.

And the mutagenic call (Test System: AMES SALMONELLA TYPHIMURIUM, Strain/Indicator: TA1538, Metabolic Activation: NONE, Method: STANDARD PLATE)?
The mutagenic call was “inactive; negative”.

What about the mutagenic call (Test System: AMES SALMONELLA TYPHIMURIUM, Strain/Indicator: TA1538, Metabolic Activation: RAT, LIVER, S-9, AROCLOR 1254, Method: STANDARD PLATE) of the same compound?
The mutagenic call was “active; positive”.
